Data published in patent US6740306B2, “Imidazotriazinone-containing compositions for nasal administration” (Bayer Aktiengesellschaft, priority 2002, dated 2004).
“Also recorded” adds a separate entry of the source.

Experiment: Benzyl alcohol as additive on nasal administration of cGMP PDE inhibitors
Format: in vivo

## OCc1ccccc1 [benzyl alcohol]
  Ability to reduce or prevent the disadvantages occurring on nasal administration of cGMP PDE inhibitors: unable to reduce or prevent the disadvantages; also recorded: unsuitable for overcoming the disadvantages
  Local irritation of the nasal mucosa: led to local irritation of the nasal mucosa
